Values after ≈ are worked out from the molar mass of the structure shown.
Legend:
[1] = test system: guinea pigs; conditions: cited from earlier work
[2] = test system: dogs; conditions: cited from earlier work
[3] = Aqueous solubility; assay type: physicochemical
[4] = test system: (+)-methamphetamine (METH) self-administration; conditions: rats; effect not surmounted by METH; cited from earlier work
[5] = test system: (+)-METH-induced dopaminergic toxicity; conditions: rats; repeated administration prior to (+)-METH self-administration; cited from earlier work
[6] = target: [3H]DTBZ-binding site on VMAT2 (Rattus norvegicus, UniProt Q01827); assay: [3H]DTBZ binding to VMAT2
[7] = target: VMAT2 (Rattus norvegicus, UniProt Q01827); assay: Inhibition of [3H]DA uptake into synaptic vesicles; assay type: biochemical
Chain of VMAT2 (Q01827 whole entry): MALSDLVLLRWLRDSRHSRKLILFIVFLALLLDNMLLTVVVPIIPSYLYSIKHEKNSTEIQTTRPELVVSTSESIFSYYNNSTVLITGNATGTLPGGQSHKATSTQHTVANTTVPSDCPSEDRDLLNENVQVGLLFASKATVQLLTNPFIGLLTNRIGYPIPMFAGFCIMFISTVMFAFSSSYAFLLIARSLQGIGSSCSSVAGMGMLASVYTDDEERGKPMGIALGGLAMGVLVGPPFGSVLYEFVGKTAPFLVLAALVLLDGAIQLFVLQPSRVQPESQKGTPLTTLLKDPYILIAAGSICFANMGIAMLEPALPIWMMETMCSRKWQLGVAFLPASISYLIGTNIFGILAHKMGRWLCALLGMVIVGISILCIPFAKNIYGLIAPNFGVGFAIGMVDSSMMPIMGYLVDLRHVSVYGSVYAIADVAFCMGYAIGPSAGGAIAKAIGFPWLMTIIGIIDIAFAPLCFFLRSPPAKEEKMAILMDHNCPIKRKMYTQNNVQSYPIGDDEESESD

Chain of [3H]DTBZ-binding site on VMAT2 (Q01827 whole entry): as above

For `CN1[C@@H](CCc2ccccc2)CCC[C@H]1CCc1ccccc1` [compound 1, N-methyl-cis-2,6-diphenethylpiperidine], the “pharmacological action in guinea pigs” value [1] is given as “peripheral spasmolytic, ‘central stimulating’ action”, the respiratory analeptic activity [2] is given as “marked respiratory analeptic activity” and the solubility [3] is given as 300 µg/mL (≈ 976 µM).
In the case of `CN1[C@@H](CC(=O)c2ccccc2)CCC[C@H]1C[C@H](O)c1ccccc1` [compound 2, lobeline], the “effect on (+)-METH self-administration” value [4] is listed as “inhibits” and the “effect on (+)-METH-induced dopaminergic toxicity” value [5] is listed as “prevents”.
For `CN1[C@@H](CCc2cccnc2)CCC[C@H]1CCc1cccnc1` [compound 14], the “fold less potent than lobelane in binding to the [3H]DTBZ binding site” value ([6]; compared to lobelane) was “about 30 fold”.
In the case of `CN1[C@@H](CCc2ccncc2)CCC[C@H]1CCc1ccncc1` [compound 21], the “binding to the [3H]DTBZ binding site compared to lobelane” value (shortened to “binding … compared to lobelane”) ([6]; compared to lobelane) is reported as “marginally lower in binding affinity”.
In the case of `CN1[C@@H](CCc2ccc3ccccc3n2)CCC[C@H]1CCc1ccc2ccccc2n1.Cl` [compound 22], the “potency in inhibiting [3H]DA uptake compared to lobelane” value [7] is reported as “equipotent with lobelane”, the “affinity for the [3H]DTBZ binding site” value [6] is reported as “submicromolar affinity” and the “binding … compared to lobelane” value ([6]; compared to lobelane) is reported as “almost as avidly as lobelane”. The “water solubility characteristics compared to lobelane” value [3] was “improved water solubility”.
With `CN1[C@@H](CCc2ccnc3ccccc23)CCC[C@H]1CCc1ccnc2ccccc12.Cl` [compound 23] the “potency in inhibiting [3H]DA uptake compared to lobelane” value [7] was “equipotent with lobelane”, the “binding … compared to lobelane” value ([6]; compared to lobelane) was “almost as avidly as lobelane” and the “water solubility characteristics compared to lobelane” value [3] was “improved water solubility”.
With `CN1[C@@H](CCc2c[nH]c3ccccc23)CCC[C@H]1CCc1c[nH]c2ccccc12` [compound 24] the “affinity for the [3H]DTBZ binding site” value [6] was “greatly diminished affinity”.

Source: publication PMC3726001 (Bioorganic & medicinal chemistry letters, 2010)
